Test results: the supplement of paper PMC10307832

Assays:
Assay in all cases: relative viability (nuclei count vs DMSO), 5 days (fraction); higher = more cells survive
[1] = compound: CC1=NC=CC(=C1)C2=CC=C(C=C2)CC(=O)NC3=CC=C(C=C3)C4=CN=CC=C4 [Wnt-C59] + CCNC(=O)c1noc(-c2cc(C(C)C)c(O)cc2O)c1-c1ccc(CN2CCOCC2)cc1 [Luminespib] (partner 0.01 µM)
How it was run: (§1)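 Five library-drug doses in √10 steps were combined with a fixed anchor-drug dose, or a single drug was given alone, by pin tool to lung cancer cell lines in 1536-well plates the day after seeding. Nuclei were stained and counted after 5 days. Relative viability is the nuclei count in treated wells over that in vehicle wells, taken as the median of duplicate plates.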

[2] = compound: CC1=NC=CC(=C1)C2=CC=C(C=C2)CC(=O)NC3=CC=C(C=C3)C4=CN=CC=C4 [Wnt-C59] + COc1cccc2cc(-c3nc([C@H]4CC[C@H](C(=O)O)CC4)n4ncnc(N)c34)[nH]c12 [OSI-027] (partner 0.5 µM)
How it was run: as §1

[3] = compound: CS(=O)(=O)CCNCc1ccc(-c2ccc3ncnc(Nc4ccc(OCc5cccc(F)c5)c(Cl)c4)c3c2)o1 [Lapatinib] + CC(=O)c1c(C)c2cnc(Nc3ccc(N4CCNCC4)cn3)nc2n(C2CCCC2)c1=O [Palbociclib] (partner 0.5 µM)
How it was run: as §1

[4] = compound: CS(=O)(=O)CCNCc1ccc(-c2ccc3ncnc(Nc4ccc(OCc5cccc(F)c5)c(Cl)c4)c3c2)o1 [Lapatinib] + Cc1nc(NC(=O)N2CCC[C@H]2C(N)=O)sc1-c1ccnc(C(C)(C)C(F)(F)F)c1 [Alpelisib] (partner 2 µM)
How it was run: as §1

Cell Line: UMC-11
- relative viability ([1]; first compound 0.001 µM): 0.932
- relative viability ([1]; first compound 0.01 µM): 1.1
- relative viability ([1]; first compound 0.03162 µM): 1.19
- relative viability ([1]; first compound 0.1 µM): 0.979
- relative viability ([2]; first compound 0.001 µM): 0.464
- relative viability ([2]; first compound 0.01 µM): 0.495
- relative viability ([2]; first compound 0.03162 µM): 0.477
- relative viability ([2]; first compound 0.1 µM): 0.462
- relative viability ([3]; first compound 0.02 µM): 0.391
- relative viability ([3]; first compound 0.06325 µM): 0.347
- relative viability ([3]; first compound 0.2 µM): 0.301
- relative viability ([3]; first compound 0.6325 µM): 0.282
- relative viability ([3]; first compound 2 µM): 0.27
- relative viability ([4]; first compound 0.02 µM): 0.861
- relative viability ([4]; first compound 0.06325 µM): 0.933
- relative viability ([4]; first compound 0.2 µM): 0.986
- relative viability ([4]; first compound 0.6325 µM): 0.887
- relative viability ([4]; first compound 2 µM): 1.09
